Measured values published in patent EP0291007A1, “Rhodanine derivative, process for preparing the same and pharmaceutical composition containing the same” (KAKEN PHARMACEUTICAL CO., LTD., priority 1987, dated 1988).
Marks after values point to notes of the source that are not given here.

Tests used:
[1] = test system: rats suffering from diabetes; test: Improving activity of the nerve conduction velocity in diabetic rats (tail nerve, method of Miyoshi); type: in vivo; details: 100 mg/kg body weight once daily for 2 weeks, control group 24.5 ± 1.2, normal rat 38.4 ± 2.2
Experimental: Rats suffering from diabetes for the test were prepared in the same manner as in Example 13.
From the day after the administration of streptozotocin, each of Compound Nos. 1-11 suspended in a 5 % aqueous solution of gum arabic was administrated to the rats in a dosage of 100 mg/kg body weight once daily for 2 weeks.
As the control groups, a 5 % aqueous solution of gum aratic having no rhodanine derivative was administered (5 mℓ/kg body weight) in the same manner as above to the rats.
Two weeks later, the conduction velocity of nerve of the rats was measured in accordance with the method of Miyoshi [Fukuoka Medical Jounal, 62(7), 588 to 603(1971)]. In this test, the nerves of the rats' tails were used as materials studied.
The rats were anesthetized with pentobarbital (30 to 45 mg/kg body weight, intraperitoneal administration), and then the conduction velocities of nerves were measured in a constant-temperature box having a temperature of 40°C.
The nerve of rat's tail was pricked with needle electrodes at a portion of about 1 cm from the anus (the first stimulation point) and at a portion of about 5 cm in a distal direction from the first stimulation point (the second stimulation point). Further, the segmental muscle of the rat's tail was pricked with a coaxial needle electrode at a portion of about 5 cm in a distol direction from the second stimulation point. The longitudinal nerve trunk of the rat's tail was stimulated at the first stimulation point and the second stimulation point to record action potentials of the provoked muscle.
The conduction velocity of nerve was calculated as follows: [formula]
Also, with respect to the normal rats administered with a 5 % aqueous solution of gum arabic, the conduction velocity of nerve was measured in the same manner as above.

[2] = test system: accumulation of sorbitol in nervous tissues; test: Inhibiting activity of the accumulation of sorbitol in nervous tissues of streptozotocin-diabetic rats; type: in vivo, SD male rats; details: single dose 48 h after streptozotocin, sciatic nerve sorbitol 5 hours after administration, mean ± spread
Experimental: After preliminary breeding SD male rats (6 weeks old) in this laboratory for 5 days, streptozotocin (made by Sigma Chemical Company) was administered intravenously (45 mg/kg body weight) to the rats to destroy β cells of Langerhans' islets in pancreas. Thus, rats suffering from diabetes were obtained.
After 48 hours from the administration of streptozotocin, the rhodanine derivative suspended in a 5 % aqueous solution of gum arabic was administered orally (100 mg/kg body weight or 25 mg/kg body weight) to the rats suffering from diabetes.
On the other hand, a 5 % aqueous solution of gum arabic having no rhodanine derivative was administered orally (5 mℓ/kg body weight) to the rats (a control group).
After 5 hours from the administration, the rats were sacrificed by the decapitation and bled to death. Immidiately, the sciatic nervous tissues of the rats were excised and frozen with dry ice. The excised sciatic nervous tissues were stored at -70°C until the sorbitol amount was measured.
After the wet weights of nervous tissues were measured, the tissues were homogenized in 1.0 mℓ of distilled water by using a homogenizer, to which 0.2 mℓ of a 4.5 % aqueous solution of barium hydroxide and 0.2 mℓ of a 5 % aqueous solution of zinc sulfate were added. The mixture was centrifuged for 10 minutes at 3,000 rpm to remove a precipitate. Ion exchange resins "Dowex 50 W" (Dow Chemical Co.) and "Duolite A-4" (Sumitomo Chemical Company, Limited.) purchased were added in small amounts to the obtained supernatant to desalt, which was recentrifuged to obtain a supernatant. To 0.5 mℓ of the extract of sorbitol were added 1.0 mt of a 50 mM glycine-sodium hydroxide buffer solution (pH 9.4) containing 0.2 mM nicotinamide adenine dinucleotide (NAD) and 50 µℓ of an enzyme solution containing 83 µg of sorbitol dehydrogenase (commercially available from BOEHRINGER MANNHEIM CORPORATION), and the mixture was reacted at room temperature for one hour. The amount of NADH formed by oxidation of sorbitol was measured by using a spectrofluorimeter and a sorbitol concentration in the extracts was measured. From the obtained results, sorbitol concentrations in nervous tissues (n mole/mg wet weight) were calculated.
A difference between the sorbitol content of the normal rat (0.12 ± 0.01 n mole/mg) and that of the rat suffering from diabetes (0.81 ± 0.06 n mole/mg) was defined as an amount of sorbitol accumulated in the tissues due to diabetes (hereinafter referred to as "sorbitol amount due to diabetes"). Also, a difference between the sorbitol content of the rat suffering from diabetes (0.81 ± 0.06 n moles/mg) and the sorbitol content of the rat suffering from diabetes which was administered the rhodanine derivative was defined as a lowering of the amount of sorbitol due to administration of the rhodanine derivative (hereinafter referred to as "lowering of sorbitol").
A lowering percentage (%) was defined as a percentage of the lowering of sorbitol to the sorbitol amount due to diabetes. The lowering percentages of the rhodanine derivatives (Compound Nos. 1-11) are shown in Table 3 (administered 100 mg/kg body weight) and Table 4 (administered 25 mg/kg body weight) with the number of rats suffering from diabetes.

[3] = test system: rats suffering from diabetes; test: Inhibiting activity of the progress of cataract in diabetic rats (lens opacity score by slit lamp); type: in vivo; details: 100 mg/kg body weight orally daily for 5 weeks; average lens score (0-4) of both eyes; control group 1.46 ± 0.12, normal rats 0
Experimental: Rats suffering from diabetes for the test were produced in the same manner as in Example 13.
From the day after the administration of streptozotocin, each of Compound Nos. 1-11 suspended in a 5 % aqueous solution of gum arabic was administered orally 100 mg/kg body weight daily for 5 weeks to the rats. As the control group, a 5 % aqueous solution of gum arabic having no rhodanine derivative was administered (5 mℓ/kg body weight) to the rats in the same manner as above.
After administering streptozotocin, lenses of the rats were observed by using a slit lump (commercially available from KOWA Co., Ltd. under a trade name "Kowa SL-2") every second or third day for 5 weeks, sufficiently keeping the lenses mydriasis with a mydriatic (commercially available from Santen Pharmaceutical Co., Ltd. under the trade name "MYDRIN-P".
The opaqueness of the lenses was estimated according to the following criteria. Score 0: There was no change in the lenses. […] Score 3: Opacity was observed over the whole of lens' surface and the fundus oculi was not seen as if projected through the lens. Score 4: The nucleus lentis became opaque.
Also, with respect to the normal rats administered with a 5 % aqueous solution of gum arabic, the opaqueness were estimated in the same manner as above.

[4] = test system: accumulation of galactitol in red blood cells; test: Inhibiting activity of the accumulation of galactitol in red blood cells of galactose-fed dogs; type: in vivo, beagle dogs; details: 10 mg/kg body weight orally once daily for 3 days; blood 10 hours after galactose 15 g/kg; control group 125 ± 10
Experimental: Each of Compound Nos. 1-11 was administered orally in a dosage of 10 mg/kg body weight once daily for 3 days with a capsule (administration time: 9 a.m. to 9:30 a.m.) to a male or female beagle dogs (body weight: from 8 to 12 kg). As the control group, the dogs were administered with vacant capsules in the same manner as above. Dog foods containing galactose in an amount of 15 g/kg body weight were given to the dogs immediately after the final administration of the capsule. The dogs completely had eaten the dog foods for 5 to 10 minutes. The blood was collected from the cephalic vein of the dog using heparine sodium after 10 hours from the administration of galactose. The collected blood was centrifuged to give red blood cells. The obtained red blood cells were washed twice with a cold physiological saline solution and were hemolysed in distilled water having an equal volume to the red blood cells.
After removing protein from the obtained solution, the resulting solution was treated with ion exchange resins, "Dowex 50 W" and "Duolite A-4", desalted and lyophilized. After subjecting to the pre-treatment of galactitol with trimethyl silyl ether (TMS), the amount of galactitol accumulated in the red blood cells was measured by a gas chromatography.

[5] = test system: accumulation of sorbitol in nervous tissues; test: Inhibiting activity of the accumulation of sorbitol in nervous tissues of streptozotocin-diabetic rats; type: in vivo, SD male rats; details: comparison compounds with linear alkyl group at 5-position; dose not stated
male ddY mice = test: Acute toxicity in mice; type: in vivo; details: oral, up to a dose of 2,000 mg/kg body weight, observed for 2 weeks
Description: (§1) The acute toxicity in mice was examined by using the rhodanine derivatives of compound Nos. 1, 2, 5, 7 and 10.

Acute toxicity in mice = type: in vivo; details: mouse, in vivo; oral, mice observed for 2 weeks; read-out: LD₅₀ (oral)
Description: as §1

Structure (SMILES) | Conduction velocity of nerve (m/sec) [1] [m/sec] | Lowering percentage (%) ([2]; 25 mg/kg body weight orally) | Lowering percentage (%) ([2]; 100 mg/kg body weight orally) | Opaqueness [3] | Amount of galactitol in red blood cells (ng/g hemoglobin) [4] [ng/g hemoglobin] | inhibition of the accumulation of sorbitol [5] | dead mice (male ddY mice) | LD50 at 336 h (Acute toxicity in mice) [mg/kg]
O=C(O)CN1C(=O)C(CC2CCCCC2)SC1=S (stereo not drawn) [Compound No. 11, 3-Carboxymethyl-5-cyclo-hexylmethylrhodanine] | 31.8 ± 1.3 | 13.0 ± 2.9 | 27.7 ± 1.6*^1% | 0.90 ± 0.13 | 87 ± 13 | – | – | –
CCC(C)CC1SC(=S)N(CC(=O)O)C1=O (stereo not drawn) [Compound No. 9, 3-Carboxymethyl-5-(2-methylbutyl)rhodanine] | 33.6 ± 2.6 | 19.0 ± 3.5 | 49.9 ± 6.9*^2% | 0.72 ± 0.11 | 69 ± 10 | – | – | –
CCC(CCCl)C1SC(=S)N(CC(=O)O)C1=O (stereo not drawn) [Compound No. 3, 3-Carboxymethyl-5-(1-ethyl-3-chloropropyl)-rhodanine] | 34.2 ± 1.8 | 34.0 ± 6.2 | 62.4 ± 9.4*^3% | 0.55 ± 0.06 | 57 ± 12 | – | – | –
CC(CCCCl)C1SC(=S)N(CC(=O)O)C1=O (stereo not drawn) [Compound No. 4, 3-Carboxymethyl-5-(1-methyl-4-chlorobutyl)-rhodanine] | 37.0 ± 3.5 | 32.2 ± 4.4 | 60.1 ± 7.3*^3% | 0.68 ± 0.09 | 59 ± 6 | – | – | –
CC(C)CCC1SC(=S)N(CC(=O)O)C1=O (stereo not drawn) [Compound No. 8, 3-Carboxymethyl-5-(3-methylbutyl)rhodanine] | 35.2 ± 1.5 | 12.2 ± 1.8 | 23.0 ± 6.2*^1% | 0.89 ± 0.10 | 72 ± 11 | – | – | –
CCCCCCCC1SC(=S)N(CC(=O)O)C1=O (stereo not drawn) [3-carboxymethyl-5-n-heptylrhodanine] | – | – | – | – | – | hardly inhibited the accumulation of sorbitol | – | –
CCCC(CCC)C1SC(=S)N(CC(=O)O)C1=O (stereo not drawn) [Compound No. 6, 3-Carboxymethyl-5-(1-propylbutyl)rhodanine] | 33.0 ± 3.1 | 16.1 ± 3.2 | 28.4 ± 7.4*^1% | 0.90 ± 0.12 | 86 ± 12 | – | – | –
CC(C)(C)CC1SC(=S)N(CC(=O)O)C1=O (stereo not drawn) [Compound No. 7, 3-Carboxymethyl-5-(2,2-dimethylpropyl)rhodanine] | 38.5 ± 4.0 | 52.5 ± 3.4 | 80.9 ± 5.8*^3% | 0.32 ± 0.05 | 48 ± 3 | – | no dead mice were observed | > 2000
CCC(CC)C1SC(=S)N(CC(=O)O)C1=O (stereo not drawn) [Compound No. 1, 3-Carboxymethyl-5-(1-ethylpropyl)rhodanine] | 36.2 ± 3.4 | 19.8 ± 3.2 | 51.5 ± 4.8*^3% | 0.98 ± 0.06 | 82 ± 6 | – | no dead mice were observed | > 2000
CCC(CC)CC1SC(=S)N(CC(=O)O)C1=O (stereo not drawn) [Compound No. 10, 3-Carboxymethyl-5-(2-ethylbutyl)rhodanine] | 34.1 ± 4.3 | 18.2 ± 2.0 | 42.9 ± 7.6*^2% | 0.74 ± 0.12 | 90 ± 10 | – | no dead mice were observed | > 2000
CC(C)C(C)C1SC(=S)N(CC(=O)O)C1=O (stereo not drawn) [Compound No. 2, 3-Carboxymethyl-5-(1,2-dimethylpropyl)-rhodanine] | 36.6 ± 2.7 | 36.5 ± 4.7 | 68.2 ± 10.6*^3% | 0.61 ± 0.07 | 66 ± 5 | – | no dead mice were observed | > 2000
CCCC(CC)C1SC(=S)N(CC(=O)O)C1=O (stereo not drawn) [Compound No. 5, 3-Carboxymethyl-5-(1-ethylbutyl)rhodanine] | 32.4 ± 2.8 | 15.2 ± 2.1 | 30.9 ± 8.8*^1% | 0.92 ± 0.10 | 94 ± 7 | – | no dead mice were observed | > 2000
